Measurements reported in US20020160990A1, “PHYTOSTEROL AND/OR PHYTOSTANOL DERIVATIVES” (priority 1998, published 2002).
Where two headings read alike, the source gives them in different places. Marks after values point to notes of the source that are not given here.

Assays:
male Fisher rats [1] = experiment: Effects of phytosterol esters on plasma total cholesterol in rats on high fat diet; assay type: in vivo, rat; conditions: for plasma total cholesterol, Week 0 Means ± SD: Week 0 (pretreatment baseline), high fat diet, n=6; for plasma total cholesterol, Week 2 Means ± SD: Week 2 of 2% (wt/wt) lipid in high fat diet; for plasma total cholesterol, % change from pretreatment, Week 2: Week 2 vs week 0; for plasma total cholesterol, Week 4 Means ± SD: Week 4 of 2% (wt/wt) lipid in high fat diet; for plasma total cholesterol, % change from pretreatment, Week 4: Week 4 vs week 0
Description: (§1) Thirty male Fisher rats, weighing 177±14 g, were maintained on a high fat diet (Table 1) during the 2 weeks preceding treatment. They were then randomly divided into five experimental groups consisting of 6 animals each. The control group (Group 1) remained on the high fat diet used during the 2-week pretreatment period. For the other experimental diets, in order to have isocaloric diets and an equal amount of fat in all the experimental diets, 2% (wt/wt) of the fat content of the control diet (1% coconut oil and 1% corn oil) was replaced by 2% (wt/wt) of the following lipids:
(§2) The rats were allowed free access to water and feed, and they were maintained on a 12-hour light-dark cycle. The feed in the cages was replaced daily, all unconsumed material discarded and food intake measured. Blood samples (1 ml) were taken by retroorbital puncture at the start of the experimental period (week 0) and after 2 weeks of treatment (week 2). After 4 weeks, the animals were sacrificed by withdrawing blood from the vena cava under Isoflurane anesthesia. Blood was collected into tubes containing […] as an anticoagulant.
(§3) Plasma was prepared from the heparinized blood by immediate centrifugation at 1600 g for 10 minutes at 4° C. Assays of plasma cholesterol, triglycerides, and HDL-cholesterol (precipitation method) were determined enzymatically on a COBASFARA analyzer (Roche Diagnostica, Switzerland). Non-HDL cholesterol was calculated by difference. The fatty acid composition of the diets was analyzed by gas chromatography.
(§4) All data are expressed as means±SD (standard deviation) for animals in each diet group. The mean differences between dietary groups were analyzed by one-way analysis of covariance (ANCOVA) with subsequent Dunnet's test for multiple comparison against a control group (Group 1 and/or Group 2). The covariate adjusted for was the value of the corresponding parameter at the start of the treatment period (week 0). All tests were performed at the 5%-level and 95%-confidence intervals were calculated.

male Fisher rats [2] = experiment: Effects of phytosterol esters on lipoproteins (HDL and non-HDL cholesterol) in rats on high fat diet; assay type: in vivo, rat; conditions: time point not given; for Non HDL cholesterol Means: calculated by difference; for HDL Cholesterol Means: precipitation method
Description: as §1, §2, §3, §4

male Fisher rats [3] = experiment: Effects of phytosterol esters on plasma triglycerides in rats on high fat diet; assay type: in vivo, rat; conditions: for plasma triglycerides, Week 0 Means ± SD: Week 0 (pretreatment baseline), high fat diet, n=6; for plasma triglycerides, Week 2 Means ± SD: Week 2 of 2% (wt/wt) lipid in high fat diet; for plasma triglycerides, % change from pretreatment, Week 2: Week 2 vs week 0; for plasma triglycerides, Week 4 Means ± SD: Week 4 of 2% (wt/wt) lipid in high fat diet; for plasma triglycerides, % change from pretreatment, Week 4: Week 4 vs week 0
Description: as §1, §2, §3, §4

[4] = Solubility in Swiss rapeseed oil at room temperature by incremental addition of oil; assay type: physicochemical
Description: The minimum starting ratio was about 1:1, and trials were discontinued at above 10:1.

[5] = Swiss rapeseed oil, room temperature
[6] = Swiss rapeseed oil, room temperature, minimum starting ratio about 1:1, discontinued above 10:1

Compound: CCC=CCC=CCC=CCC=CCC=CCC=CCCC(=O)OC1CC[C@@]2(C)C(CC[C@H]3[C@@H]4CC[C@H]([C@H](C)CC[C@@H](CC)C(C)C)[C@@]4(C)CC[C@@H]32)C1 (some centres unmarked) [Group 3, sitostanol-DHA ester]
- plasma total cholesterol, Week 0 Means ± SD (male Fisher rats [1]): 2.90 ± 0.58
- plasma total cholesterol, Week 2 Means ± SD (male Fisher rats [1]): 1.79 ± 0.37^b
- plasma total cholesterol, % change from pretreatment, Week 2 (male Fisher rats [1]): −38%
- plasma total cholesterol, Week 4 Means ± SD (male Fisher rats [1]): 1.23 ± 0.26^b
- plasma total cholesterol, % change from pretreatment, Week 4 (male Fisher rats [1]): −58%
- Non HDL cholesterol Means (male Fisher rats [2]): 0.75 ± 0.21^a
- HDL Cholesterol Means (male Fisher rats [2]): 0.49 ± 0.10^b
- plasma triglycerides, Week 0 Means ± SD (male Fisher rats [3]): 1.25 ± 0.26
- plasma triglycerides, Week 2 Means ± SD (male Fisher rats [3]): 0.83 ± 0.13^b
- plasma triglycerides, % change from pretreatment, Week 2 (male Fisher rats [3]): −34%
- plasma triglycerides, Week 4 Means ± SD (male Fisher rats [3]): 0.74 ± 0.15^b,c
- plasma triglycerides, % change from pretreatment, Week 4 (male Fisher rats [3]): −41%

Compound: CC[C@H](CC[C@@H](C)[C@H]1CC[C@H]2[C@@H]3CC[C@H]4C[C@@H](O)CC[C@]4(C)[C@H]3CC[C@]12C)C(C)C [stigmastanol]
- Solubility (in words) [4, 5]: insoluble
- Solubility g oil/g material [4, 6]: >10 g oil/g material

Compound: CC/C=C\C/C=C\C/C=C\C/C=C\C/C=C\C/C=C\CCC(=O)O[C@H]1CC[C@@]2(C)C(=CC[C@H]3[C@@H]4CC[C@H]([C@H](C)/C=C/[C@@H](CC)C(C)C)[C@@]4(C)CC[C@@H]32)C1 [stigmasterol docosahexaenoate]
- Solubility (in words) [4, 5]: miscible
- Solubility g oil/g material [4, 6]: >1 g oil/g material

Compound: CC/C=C\C/C=C\C/C=C\C/C=C\C/C=C\CCCC(=O)OCC [EPA ethyl ester 90%, EPA ethyl ester]
- Solubility (in words) [4, 5]: miscible
- Solubility g oil/g material [4, 6]: >1 g oil/g material

Compound: CCC=CCC=CCC=CCC=CCC=CCCCC(=O)OC1CCC2(C)C(=CCC3C2CCC2(C)C(C(C)C=CC(CC)C(C)C)CCC32)C1 (centres unmarked) [stigmasterol eicosapentenoate, Stigmasterol eicosapenatenoate]
- Solubility (in words) [4, 5]: miscible
- Solubility g oil/g material [4, 6]: >1 g oil/g material

Compound: CC/C=C\C/C=C\C/C=C\C/C=C\C/C=C\CCCC(=O)O[C@H]1CC[C@@]2(C)C(=CC[C@H]3[C@@H]4CC[C@H]([C@H](C)/C=C/[C@@H](CC)C(C)C)[C@@]4(C)CC[C@@H]32)C1 [Group 4, stigmasterol-EPA ester]
- plasma total cholesterol, Week 0 Means ± SD (male Fisher rats [1]): 2.97 ± 0.49
- plasma total cholesterol, Week 2 Means ± SD (male Fisher rats [1]): 1.94 ± 0.12^b
- plasma total cholesterol, % change from pretreatment, Week 2 (male Fisher rats [1]): −35%
- plasma total cholesterol, Week 4 Means ± SD (male Fisher rats [1]): 1.61 ± 0.25^b
- plasma total cholesterol, % change from pretreatment, Week 4 (male Fisher rats [1]): −46%
- Non HDL cholesterol Means (male Fisher rats [2]): 1.07 ± 0.26^a,b
- HDL Cholesterol Means (male Fisher rats [2]): 0.53 ± 0.08
- plasma triglycerides, Week 0 Means ± SD (male Fisher rats [3]): 0.98 ± 0.15
- plasma triglycerides, Week 2 Means ± SD (male Fisher rats [3]): 0.81 ± 0.19^b
- plasma triglycerides, % change from pretreatment, Week 2 (male Fisher rats [3]): −17%
- plasma triglycerides, Week 4 Means ± SD (male Fisher rats [3]): 0.83 ± 0.13^b,c
- plasma triglycerides, % change from pretreatment, Week 4 (male Fisher rats [3]): −15%

Compound: CC/C=C\C/C=C\C/C=C\C/C=C\C/C=C\C/C=C\CCC(=O)OCC [docosahexaenoic acid ethyl ester 90%, docosahexaenoic acid ethyl ester]
- Solubility (in words) [4]: miscible
- Solubility g oil/g material [4]: >1 g oil/g material

Compound: Stigmastanol docosahexaenoate
- Solubility (in words) [4, 5]: miscible
- Solubility g oil/g material [4, 6]: >1 g oil/g material

Compound: CC[C@H](/C=C/[C@@H](C)[C@H]1CC[C@H]2[C@@H]3CC=C4C[C@@H](O)CC[C@]4(C)[C@H]3CC[C@]12C)C(C)C [stigmasterol]
- Solubility (in words) [4, 5]: insoluble
- Solubility g oil/g material [4, 6]: >10 g oil/g material
